Blank lines part the entries; values can stand above or below the molecule they belong to. Ends that are not written are not given here.
Key:
[1] = system: PBMC from RA patients carrying the DR4 (DRB1*0401) specificity; test: Peptide-induced proliferative responses of PBMC from RA patients; assay type: cell-based, human; conditions: 100 and 10 microgram/ml, 7 days, 3H-thymidine incorporation; for Peptide-induced proliferative response of PBMC, RA 286: RA patient 286, 0401, R; for Peptide-induced proliferative response of PBMC, RA 191: RA patient 191, 0401, R
Description: This study included 7 DR4(DRB1*0401)-positive patients diagnosed as suffering from RA according to the ARA criteria (Arnett et al., (1988), Arthritis Rheum. 31, 315). Peripheral blood samples were obtained with informed consent. There were five women and two men aged 46-79 years. Their duration of disease ranged from over 10 to over 30 years. Three out of 7 patients had at least 3 swollen joints. […] All patients were on medication: Four patients were treated with prednisone, three patients received anti-rheumatic agents and 4 patients were treated with NSAID's as well.
In order to identify T-cell epitopes within HC gp-39, 59 peptides of 16 AA in length, overlapping by 10 AA were tested for their capacity to induce a proliferative response in PBMC from RA patients and healthy controls carrying the DR4 (DRB1*0401) specificity (Table 1).
PBMC obtained from heparinized venous peripheral blood were isolated by standard centrifugation on a Ficoll-Paque gradient. Cells were cultured in four-fold at a concentration of 1,5×10^5 cells/well in medium supplemented with 10% heat-inactivated, autologous plasma, L-glutamine, 2-ME and antibiotics in flatbottomed microtiter plates. Cells were incubated in medium alone or in the presence of phytohaemagglutinin (PHA) (2:5 μg/ml) to assert cell viability, or in the presence of 10 or 100 μg/ml of the HC gp-39-derived peptides. In several cases, sets of 2 or 3 sequential peptides were tested due to limited PBMC numbers of individual donors. Cultures were incubated in a total volume of 210 μl for 7 days at […] in a humidified atmosphere of 5% CO2. Cultures were pulsed during the last 18 hours with 0.25 μCi ^3H-thymidine ([^3H]TdR). Cells were harvested on glassfiber filters and [^3H] TdR incorporation was measured by gas scintillation (Packard Matrix 96 βcounter). Only peptides inducing a proliferative response at both 10 and 100 μg/ml were considered to contain a T-cell epitope. Responses were defined positive if stimulation index values (SI, antigen-specific counts per 5 min (cp5 m)/background cp5 m) exceeded or equaled 2.
T-cell reactivity to HC gp-39-derived peptide as analyzed by measuring the PBMC proliferative response in DR4 (DRB1*0401)-positive RA patients and healthy donors. Proliferative responses were tested in autologous plasma. In Table IIIA and IIIB the results of 7 experiments are presented showing the responses of RA patients (Table IIIA) and the responses of healthy donors (Table IIIB) to 59 overlapping sequences derived from HC gp-39.

[2] = target: T1, DR4 (DRB1*0401) molecules (Homo sapiens, UniProt P01903+P01911, A100K/A169T/F76Y/I96L/K127E/L162R/M171V/N62H/P40V/Q125Y/R42H/S133A/S149N/S66Y/V115G/V209L/W38E); test: Peptide HLA-DR binding assay (semi-quantitative competition binding); conditions: for IC50: Table IIIA, competition with biotinylated marker peptide HA 309 Y→F, pH5.0, 44 hr RT
T1 construct: molecules were purified from the homozygous EBV-transformed human B lymphoblastoid cell lines Huly138IC2 and BM92 using the mAb; endogenous in cells
Description: DR4 (DRB1*0401) and DR4 (DRB1*0404) molecules were purified from the homozygous EBV-transformed human B lymphoblastoid cell lines Huly138IC2 and BM92 using the mAb t243, directed against a monomorphic determinant on the DR-complex (Lampson, L. A and R. Levy (1980), J. Immunol. 125:293 299).
The peptide binding studies were performed using a semi-quantitative competition binding assay (Joosten et al 1994, Int. Immunol. 6, 751). Briefly, purified HLA-DR molecules (30 nM DR4(DRB1*0401) or 15 nM DR4 (DRB1*0404) were incubated at pH5.0 with 50 nM biotinylated marker peptide (HA 309y→F) and a concentration range of competitor peptide in a final volume of 25 μl binding buffer (PBS containing 0.01% […], 0.05% NP-40, 5% DMSO, 1 mM AEBSF, 1 mM N-ethyl maleimide, 8 mM EDTA and 10 μm pepstatin A). After 44 hr of incubation at RT, HLA DR bound marker peptide was separated from free marker peptide using a 96 well vacuum dotblot apparatus (Hybri. dot, BRL) and a nitrocellulose membrane (Hybond ECL, Amersham, UK). The nitrocellulose filters were blocked with 0.5% DNA blocking reagent (Boehringer) in 0.1 M maleic acid, 150 mM NaCl, pH7.5.
After 0.5-1 hr, the filters were washed in PBS, 0.05% Tween 20 (Sigma) and incubated with Strepcavidin-HRPO (Southern Biotechnology) in a 1:10.000 dilution. Biotinylated peptides were detected by enhanced chemiluminescence using a Western Blot ECL kit (Amersham). Exposure of the preflashed films (Hyperfilm-ECL, Amersham) was for 10 min. The spots were analysed by scanning the films and using Image Quant/Excel software for analysis.
The affinity of a given peptide for binding DRB1*0401-encoded molecules was related to competition with the marker peptide. This relative binding affinity was defined as the peptide concentration at which the signal was reduced to 50% (IC50).

[3] = target: T2, DR4 (DRB1*0401) molecules purified from the homozygous EBV-transformed human B lymphoblastoid cell line … (human, UniProt P01903 26-254); test: competition binding assay on purified DR4(DRB1*0401)
T2 construct: mature; That form is inferred from purification of the native complex

Molecule: PPFLRTHGFDGLDLAW [compound 18, PPFLRTHGFDGLDLAW]
Peptide-induced proliferative response of PBMC, RA 276 ([1]; RA patient 276, 0401, R): pos (positive responses to both 100 and 10 microgram/ml of peptide or sets of peptides (SI≧2 were regarded positive)) | Relative affinity of binding to DR4 (DRB1*0401), in words [2]: high to intermediate relative affinity | IC50 [2]: 10 to 100 µM

Molecule: TIDSSYDIAKISQHLD [compound 28, TIDSSYDIAKISQHLD]
Relative affinity of binding to DR4 (DRB1*0401), in words [2]: high to intermediate relative affinity | IC50 [2]: < 1 µM

Relative affinity of binding to DR4 (DRB1*0401), in words [2]: high to intermediate relative affinity | IC50 [2]: 1 to 10 µM
Molecule: DFQGSFCGQDLRFPLT [compound 57, DFQGSFCGQDLRFPLT]

Molecule: DLAWLYPGRRDKQHFT [peptide 20, DLAWLYPGRRDKQHFT]
Peptide-induced proliferative response of PBMC, RA 286 [1]: pos (positive responses to both 100 and 10 microgram/ml of peptide or sets of peptides (SI≧2 were regarded positive)) | Relative affinity of binding to DR4 (DRB1*0401), in words [2]: poor relative affinity | IC50 [2]: 100 to 1000 µM

Molecule: PASKLVMGIPTFGRSF [compound 39, PASKLVMGIPTFGRSF]
Relative affinity of binding to DR4 (DRB1*0401), in words [2]: high to intermediate relative affinity | IC50 [2]: 1 to 10 µM

Molecule: GTLAYYEICDFLRGAT [compound 46, GTLAYYEICDFLRGAT]
Relative affinity of binding to DR4 (DRB1*0401), in words [2]: high to intermediate relative affinity | IC50 [2]: < 1 µM

Molecule: DIAKISQHLDFISIMT [compound 29, DIAKISQHLDFISIMT]
Peptide-induced proliferative response of PBMC, RA 259 ([1]; RA patient 259, 0401, R): pos (positive responses to both 100 and 10 microgram/ml of peptide or sets of peptides (SI≧2 were regarded positive)) | Relative affinity of binding to DR4 (DRB1*0401), in words [2]: high to intermediate relative affinity | IC50 [2]: < 1 µM

Relative affinity of binding to DR4 (DRB1*0401), in words [2]: high to intermediate relative affinity | IC50 [2]: 1 to 10 µM
Molecule: TFIKSVPPFLRTHGFD [compound 17, TFIKSVPPFLRTHGFD]

Molecule: EICDFLRGATVHRTLG [compound 47, EICDFLRGATVHRTLG]
Peptide-induced proliferative response of PBMC, RA 191 [1]: pos (positive responses to both 100 and 10 microgram/ml of peptide or sets of peptides (SI≧2 were regarded positive)) | Relative affinity of binding to DR4 (DRB1*0401), in words [2]: high to intermediate relative affinity | IC50 [2]: < 1 µM

Molecule: RGATVHRTLGQQVPYA [compound 48, RGATVHRTLGQQVPYA]
Relative affinity of binding to DR4 (DRB1*0401), in words [2]: high to intermediate relative affinity | IC50 [2]: 10 to 100 µM

Molecule: WALDLDDFQGSFCGQD [compound 56, WALDLDDFQGSFCGQD]
Peptide-induced proliferative response of PBMC, RA 191 [1]: pos (positive responses to both 100 and 10 microgram/ml of peptide or sets of peptides (SI≧2 were regarded positive)) | Peptide-induced proliferative response of PBMC, RA 286 [1]: pos (positive responses to both 100 and 10 microgram/ml of peptide or sets of peptides (SI≧2 were regarded positive)) | Relative affinity of binding to DR4 (DRB1*0401), in words [2]: high to intermediate relative affinity | IC50 [2]: < 1 µM

Molecule: VKSKVQYLKDRQLAGA [compound 53, VKSKVQYLKDRQLAGA]
Relative affinity of binding to DR4 (DRB1*0401), in words [2]: high to intermediate relative affinity | IC50 [2]: < 1 µM

Molecule: NTQSRRTFIKSVPPFL [compound 16, NTQSRRTFIKSVPPFL]
Peptide-induced proliferative response of PBMC, RA 286 [1]: pos (positive responses to both 100 and 10 microgram/ml of peptide or sets of peptides (SI≧2 were regarded positive)) | Relative affinity of binding to DR4 (DRB1*0401), in words [2]: high to intermediate relative affinity | IC50 [2]: < 1 µM

Molecule: HGFDGLDLAWLYPGRR [compound 19, HGFDGLDLAWLYPGRR]
Relative affinity of binding to DR4 (DRB1*0401), in words [2]: high to intermediate relative affinity | IC50 [2]: 10 to 100 µM

Molecule: YREGDGSCFPDALDRF [peptide 3, YREGDGSCFPDALDRF]
Relative affinity of binding to DR4 (DRB1*0401), in words [2]: high to intermediate relative affinity | IC50 [2]: 10 to 100 µM

binding result [3]: binds
B1: HC gp-39 peptide 38 (residues 244-259) (peptide)
peptide: MLRLGAPASKLVMGIP

binding result [3]: binds
B2: HC gp-39 peptide 28 (residues 184-199) (peptide)
peptide: TIDSSYDIAKISQHLD

binding result [3]: binds
B3: HC gp-39 peptide 3 (residues 34-49) (peptide)
peptide: YREGDGSCFPDALDRF

binding result [3]: binds
B4: HC gp-39 peptide 20 (residues 136-151) (peptide)
peptide: DLAWLYPGRRDKQHFT

binding result [3]: binds
B5: HC gp-39 peptide 34 (residues 220-235) (peptide)
peptide: SPLFRGQEDASPDRFS

binding result [3]: binds
B6: HC gp-39 peptide 2 (residues 28-43) (peptide)
peptide: YTSWSQYREGDGSCFP

binding result [3]: binds
B7: HC gp-39 peptide 40 (residues 256-271) (peptide)
peptide: MGIPTFGRSFTLASSE

binding result [3]: binds
B8: HC gp-39 peptide 53 (residues 334-349) (peptide)
peptide: VKSKVQYLKDRQLAGA

binding result [3]: binds
B9: HC gp-39 peptide 18 (residues 124-139) (peptide)
peptide: PPFLRTHGFDGLDLAW

binding result [3]: binds
B10: HC gp-39 peptide 46 (residues 292-307) (peptide)
peptide: GTLAYYEICDFLRGAT

binding result [3]: binds
B11: HC gp-39 peptide 55 (residues 346-361) (peptide)
peptide: LAGAMVWALDLDDFQG

binding result [3]: binds
B12: HC gp-39 peptide 16 (residues 112-127) (peptide)
peptide: NTQSRRTFIKSVPPFL

binding result [3]: binds
B13: HC gp-39 peptide 12 (residues 88-103) (peptide)
peptide: PNLKTLLSVGGWNFGS

binding result [3]: binds
B14: HC gp-39 peptide 29 (residues 190-205) (peptide)
peptide: DIAKISQHLDFISIMT

binding result [3]: binds
B15: HC gp-39 peptide 41 (residues 262-277) (peptide)
peptide: GRSFTLASSETGVGAP

binding result [3]: binds
B16: HC gp-39 peptide 19 (residues 130-145) (peptide)
peptide: HGFDGLDLAWLYPGRR

binding result [3]: binds
B17: HC gp-39 peptide 47 (residues 298-313) (peptide)
peptide: EICDFLRGATVHRTLG

binding result [3]: binds
B18: HC gp-39 peptide 48 (residues 304-319) (peptide)
peptide: RGATVHRTLGQQVPYA

binding result [3]: binds
B19: HC gp-39 peptide 39 (residues 250-265) (peptide)
peptide: PASKLVMGIPTFGRSF

— US6881824B1, “Peptides suitable for use in antigen specific immunosuppressive therapy” (Akzo Nobel N.V., priority 1996, dated 2005)
